Results on 4 molecules are retold here after patent US10323021B2, “Triazoles as NR2B receptor inhibitors” (Janssen Pharmaceuticals, Inc., priority 2014, dated 2019).

Assay [1] has as its system mice (forced swim test, model of depression). Kind of assay: Forced swim test in mice. The settings on record: p.o., 30 minutes before the test, male NMRI mice. Type of assay: in vivo, mouse. Here is the method: The compounds of the invention show significant antidepressive effects in the forced swim test in mice, an animal model of depression at doses of 100 mg/kg or below.
The method, which detects antidepressant activity, follows that described by Porsolt et al (Arch. Int. Pharmacodyn., 229, 327-336, 1977), which is incorporated by reference herein in its entirety.
Mice forced to swim in a situation from which they cannot escape rapidly become immobile. Antidepressants decrease the duration of immobility.
Male NMRI mice (Janvier, France), weighing 20-30 g, were individually placed in a cylinder (height=24 cm; diameter=13 cm) containing 10 cm water (22° C.) from which they cannot escape.
The mice were placed in the water for 6 minutes and the duration of immobility during the last 4 minutes was measured. The latency to the first bout of immobility was also recorded starting from the beginning of the test. 10 mice were studied per group. The test substance was administered p.o. 30 minutes before the test and compared with vehicle control group. The test was performed blind.

Assay [2] addresses T1, rat NR1/NR2B receptor (Rattus norvegicus (Rat), UniProt P35439+Q00960). The assay is described as follows: RRNR2BB: inhibition of specific [3H]-Ifenprodil binding to the rat NR1/NR2B receptor. The settings on record: rat brain membranes, Hill-plot 2-parameter model.
Protocol: After thawing on the day of the assay, a 5 ml membrane aliquote was centrifuged at 48000 g for 30 min at 4° C. […] This step was repeated twice. The final pellet was homogenized in 5 ml of 5 mM Tris/1 mM EDTA buffer at 4° C. with an Ultraturrax and used for the Ifenprodil-binding assay.
Nonspecific binding was estimated in the presence of 10 M CP101.606. The samples were incubated for 60 min. at 4° C.
Binding was terminated by filtration of the incubated membrane preparations using Filtermat B (Pharmacia, Uppsala Sweden) and a Micro Cell Harvester (Skatron, Lier, Norway). The Filtermat B had been presoaked with 1% polyethylenimine and carefully washed with 50 mM Tris/HCl-buffer pH=7.7 after the filtration to separate free and bound radioactivity.
For pipetting of the incubation mixture the robot Biomek2000 (Fa. Beckman) was used.
The specific binding in this assay was about 80%.
For assay [3], the target named is T1, rat NR1/NR2B receptor. The assay is described as follows: NR2B binding assay: inhibition of specific [3H]-Ifenprodil binding to the rat NR1/NR2B receptor. The settings on record: rat brain membranes, [3H]-Ifenprodil, Hill-plot 2-parameter model. As for the experimental part: Inhibition of Specific Binding to the Rat NR1/NR2B Receptor
Male Wistar rats (180 to 200 g) were killed by suffocation in a CO2 chamber for two minutes. Whole brains without cerebellum were removed and dissected on ice, placed into closed vials and stored at −70° C.
Membrane fractions were prepared and tested using standard techniques. At the time of the assay, 1 g of the brains was placed into 25 ml of 50 mM Tris/10 mM EDTA buffer, pH 7.1, (25 vol. per g of original tissue) and homogenized for 30 sec at 20000 rpm with an Ultraturrax T25 (Jahnke & Kunkel, IKA-Labortechnik, Staufen, Germany). The homogenate was centrifuged at 4° C. for 10 min at 48000 g (OPTIMA L-70, Beckman, Palo Alto, Calif. 94304, USA).
The supernatant was discarded and the pellet was homogenized on ice for 30 sec at 20000 rpm with an Ultraturrax and again centrifuged at 48000 g for 30 minutes at 4° C. The resulted pellet was resuspended in 25 ml of 50 mM Tris/10 mM EDTA buffer, homogenized for 30 sec with an Ultraturrax, aliquoted, frozen at −70° C. and stored until use.
After thawing on the day of the assay, a 5 ml membrane aliquot was centrifuged at 48000 g for 30 min at 4° C. The pellet was resuspended in 5 ml of 5 mM Tris/1 mM EDTA buffer, pH 7.4, homogenized for 30 sec at 20000 rpm with an Ultraturrax and centrifuged at 48000 g for 30 min at 4° C. This was repeated twice. The final pellet was homogenized in 5 ml of 5 mM Tris/1 mM EDTA buffer at 4° C. with an Ultraturrax and used for the Ifenprodil-binding assay as described in the following.
Nonspecific binding was estimated in the presence of […] CP101.606. The samples were incubated for 60 min. at 4° C.
The incubation was terminated by filtration of the membrane preparations using Filtermat B (Pharmacia, Uppsala Sweden) and a Micro Cell Harvester (Skatron, Lier, Norway). The Filtermat B had been presoaked with 1% polyethylene imine and carefully washed with 50 mM Tris/HCl-buffer pH 7.7 after the filtration to separate free and bound radioactivity.
The optimal amount of membrane preparation in the assay had been determined and optimized for each membrane preparation separately before the test.
For pipetting of the incubation mixture we routinely used the robot Biomek2000 (Fa. Beckman).
For determination of IC50 values the Hill-plot, 2-parameter-model was used.

The target of assay [4] is hERG receptor (Homo sapiens (Human), UniProt Q12809). The assay is described as follows: HERGBD: inhibition of specific [3H]-Dofetilide binding to the hERG receptor. The conditions noted are these: HEK hERG membranes, Hill-plot 2-parameter model. (In general: hERG is a cardiac potassium channel; its block is linked to QT prolongation.)
hERG receptor, sequence (Q12809 whole entry): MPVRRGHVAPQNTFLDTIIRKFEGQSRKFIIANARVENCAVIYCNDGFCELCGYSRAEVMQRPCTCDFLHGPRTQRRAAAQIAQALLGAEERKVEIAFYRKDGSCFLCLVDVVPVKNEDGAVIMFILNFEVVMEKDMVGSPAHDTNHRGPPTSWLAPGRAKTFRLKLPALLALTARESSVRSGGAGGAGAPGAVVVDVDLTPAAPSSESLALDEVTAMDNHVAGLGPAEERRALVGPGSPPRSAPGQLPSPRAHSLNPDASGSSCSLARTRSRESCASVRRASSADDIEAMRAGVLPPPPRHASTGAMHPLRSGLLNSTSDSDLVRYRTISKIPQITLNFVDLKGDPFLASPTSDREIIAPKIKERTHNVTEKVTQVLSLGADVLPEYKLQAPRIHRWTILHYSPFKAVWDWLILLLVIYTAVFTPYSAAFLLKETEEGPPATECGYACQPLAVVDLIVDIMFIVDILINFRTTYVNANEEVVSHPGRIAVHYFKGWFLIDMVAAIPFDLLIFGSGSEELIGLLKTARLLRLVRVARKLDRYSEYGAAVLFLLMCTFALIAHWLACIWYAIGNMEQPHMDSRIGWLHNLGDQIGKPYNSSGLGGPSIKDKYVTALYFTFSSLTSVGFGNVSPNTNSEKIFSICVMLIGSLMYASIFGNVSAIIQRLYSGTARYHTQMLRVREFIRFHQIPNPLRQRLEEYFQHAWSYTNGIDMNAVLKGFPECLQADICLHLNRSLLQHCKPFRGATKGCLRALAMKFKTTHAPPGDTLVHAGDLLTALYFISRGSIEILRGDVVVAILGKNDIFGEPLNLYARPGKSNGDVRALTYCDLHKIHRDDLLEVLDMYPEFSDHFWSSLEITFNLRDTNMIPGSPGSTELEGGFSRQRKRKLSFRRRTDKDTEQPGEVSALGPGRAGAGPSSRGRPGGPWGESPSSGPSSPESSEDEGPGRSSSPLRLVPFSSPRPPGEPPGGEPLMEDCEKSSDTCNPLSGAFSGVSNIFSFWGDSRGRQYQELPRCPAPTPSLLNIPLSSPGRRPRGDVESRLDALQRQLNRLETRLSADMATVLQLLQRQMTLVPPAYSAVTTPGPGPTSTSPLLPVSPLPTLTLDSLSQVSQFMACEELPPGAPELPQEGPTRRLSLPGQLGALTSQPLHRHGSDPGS
Protocol: Inhibition of Specific Binding to the hERG—Receptor (HERGBD)
A HEK cell line with stable transfected human ERG receptor was used for the assay. The cells were grown adherently and maintained in DULBECCOS' MEM medium with 10% FBS, 1% non-essential amino acids, 1% Penicillin/Streptomycin and 400 μg/ml G418 (Calbiochem).
For binding assays and membrane preparations the cell culture medium was removed, cells were washed with PBS. Crude membranes for radioligand binding experiments were prepared by scraping the cells off the dishes in ice cold 20 mM HEPES/0.1 mM KCl/pH 7.2. […]
Binding was terminated by filtration of the incubated membrane preparations using Filtermat B (Pharmacia, Uppsala Sweden) and a Micro Cell Harvester (Skatron, Lier, Norway). The Filtermat B had been presoaked with 1% polyethylenimine and carefully washed with 0.05 M Tris/HCl-buffer pH=7.7 after the filtration to separate free and bound radioactivity. The filters were counted in a scintillation counter (Betaplate 1205, Berthold, Wildbad, Germany) in order to determine the specific binding of [^3H]-Dofetilide.
The optimal amount of membrane preparation in the assay was determined and optimized for each membrane preparation separately in front of using the membranes in compound testing.
The IC50 values in the table below were determined using the Hill-plot, 2-parameter-model.

T1 sequence (Q00960 27-1482, other chains not shown): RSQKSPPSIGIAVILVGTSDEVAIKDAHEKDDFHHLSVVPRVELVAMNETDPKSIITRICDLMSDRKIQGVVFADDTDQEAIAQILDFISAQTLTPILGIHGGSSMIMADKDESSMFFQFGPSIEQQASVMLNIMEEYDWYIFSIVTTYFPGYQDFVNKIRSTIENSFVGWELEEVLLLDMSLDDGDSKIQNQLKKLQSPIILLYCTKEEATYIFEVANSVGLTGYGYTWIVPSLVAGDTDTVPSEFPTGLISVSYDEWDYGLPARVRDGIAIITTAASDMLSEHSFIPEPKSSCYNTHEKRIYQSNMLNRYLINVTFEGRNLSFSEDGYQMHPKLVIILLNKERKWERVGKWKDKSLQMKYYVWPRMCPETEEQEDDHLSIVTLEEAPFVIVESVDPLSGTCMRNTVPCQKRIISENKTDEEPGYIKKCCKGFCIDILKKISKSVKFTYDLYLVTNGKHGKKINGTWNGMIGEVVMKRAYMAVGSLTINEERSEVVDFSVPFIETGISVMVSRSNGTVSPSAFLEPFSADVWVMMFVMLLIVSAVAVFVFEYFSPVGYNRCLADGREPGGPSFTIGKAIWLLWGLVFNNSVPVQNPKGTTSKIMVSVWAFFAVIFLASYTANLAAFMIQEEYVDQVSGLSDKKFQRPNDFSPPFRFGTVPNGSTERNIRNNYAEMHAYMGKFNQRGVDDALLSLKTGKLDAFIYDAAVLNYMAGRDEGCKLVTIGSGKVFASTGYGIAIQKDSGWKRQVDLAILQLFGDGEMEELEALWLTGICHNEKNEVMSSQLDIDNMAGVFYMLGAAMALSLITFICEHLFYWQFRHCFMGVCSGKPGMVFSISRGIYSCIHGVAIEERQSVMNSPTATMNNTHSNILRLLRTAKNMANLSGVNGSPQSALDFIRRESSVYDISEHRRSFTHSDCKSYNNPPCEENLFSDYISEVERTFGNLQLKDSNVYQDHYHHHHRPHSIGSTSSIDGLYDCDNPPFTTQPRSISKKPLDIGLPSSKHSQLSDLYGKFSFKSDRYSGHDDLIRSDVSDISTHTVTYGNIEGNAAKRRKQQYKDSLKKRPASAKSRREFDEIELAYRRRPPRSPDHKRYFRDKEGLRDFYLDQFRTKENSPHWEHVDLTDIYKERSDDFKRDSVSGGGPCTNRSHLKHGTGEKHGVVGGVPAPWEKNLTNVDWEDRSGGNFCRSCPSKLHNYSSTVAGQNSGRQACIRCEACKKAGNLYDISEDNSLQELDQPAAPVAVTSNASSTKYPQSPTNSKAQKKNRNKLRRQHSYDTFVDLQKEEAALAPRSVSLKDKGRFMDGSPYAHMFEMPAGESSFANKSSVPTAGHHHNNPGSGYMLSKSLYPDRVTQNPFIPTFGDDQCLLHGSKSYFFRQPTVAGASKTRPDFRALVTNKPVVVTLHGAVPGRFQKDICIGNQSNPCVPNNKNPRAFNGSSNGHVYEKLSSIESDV

`Fc1ccc(-n2cc(Cn3ccnc3C3CC3)nn2)cc1C(F)F` [Example 82, 4-(2-Cyclopropyl-imidazol-1-ylmethyl)-1-(3-difluoromethyl-4-fluoro-phenyl)-1H-[1,2,3]triazole] showed a Minimum effective dose in assay [1] of 60 mg/kg.

`OCCc1nccn1Cc1cn(-c2ccc(F)c(OC(F)F)c2)nn1` [Example 101, 1-(3-Difluoromethoxy-4-fluoro-phenyl)-4-[2-(2-hydroxy-ethyl)-imidazol-1-ylmethyl]-1H-[1,2,3]triazole] showed a Minimum effective dose in assay [1] greater than 30 mg/kg.

For `FCCc1nccn1Cc1cn(-c2cc(F)cc(C(F)F)c2)nn1` [Example 104, 1-(3-Difluoromethyl-5-fluoro-phenyl)-4-[2-(2-fluoro-ethyl)-imidazol-1-ylmethyl]-1H-[1,2,3]triazole], the IC50 (as a rule, the concentration that gives 50% inhibition) in assay [2] worked out at 186 nM; in assay [3], 186 nM; in assay [4], 30600 nM.

On to `OCCc1nccn1Cc1cn(-c2ccc(S(F)(F)(F)(F)F)cc2)nn1` [Example 118, 2-(1-((1-(4-(pentafluoro-l6-sulfanyl)phenyl)-1H-1,2,3-triazol-4-yl)methyl)-1H-imidazol-2-yl)ethan-1-ol], for which the IC50 in assay [2] and in assay [3] was 263 nM throughout.
